# Data published in patent EP1614683B1, “Indazole compounds and pharmaceutical compositions for inhibiting protein kinases, and methods for their use” (priority 1999, dated 2001).
# “And” between values parts separate entries of the source, which are not always exact repeats. Identical values can stand only once. Like-named read-outs stand apart in the source and are kept apart here. Marks after values point to notes of the source that are not given here.
# What was measured:
# in vivo = conditions: mouse, plasma, pH 2.3
# LCK tyrosine kinase = LCK tyrosine kinase (Homo sapiens, UniProt P06239, C224D/P223M); assay: LCK spectrophotometric assay; format: biochemical; conditions: Table 1, compound concentration 1 µM; for inhibition at 1 µM: read-out: Lck-P* (% inhibition); for Lck-P* (% inhibition): 1 µM
# Procedure: The spectrophotometric assay was carried out as described above for VEGF-R2, except for the following changes in concentration: LCK = 60 nM, MgCl2 = 0 mM, poly(E4Y1) = 20 mM.
# [1] = tested on: human umbilical vein endothelial cells (HUVEC); assay: HUVEC proliferation assay (VEGF-stimulated, MTT); format: cell-based; conditions: Homo sapiens, HUVEC, Table 1
# human FGF-R1 = human FGF-R1 (Homo sapiens, UniProt P11362, C488A/C584S/L457V); assay: FGF-R spectrophotometric assay; format: biochemical; conditions: Table 1, compound concentration 1 µM; for inhibition at 1 µM: read-out: FGF-P* (% inhibition); for FGF-P* (% inhibition): 1 µM
# Procedure: The spectrophotometric assay was carried out as described above for VEGF-R2, except for the following changes in concentration: FGF-R = 50 nM, ATP = 2 mM, and poly(E4Y1) =15 mM.
# in vitro = in vitro ADME, human; conditions: human liver microsomes, 5 µM test compound, 37 °C, 2 h; for remaining at 2 h, 5 µM: read-out: % remain (HLM, 2 h)
# Procedure: Compound metabolism in human liver microsomes was measured by LC-MS analytical assay procedures as follows. First, human liver microsomes (HLM) were thawed and diluted to 5 mg/mL with cold 100 mM potassium phosphate (KPO4) buffer. Appropriate amounts of KPO4 buffer, NADPH-regenerating solution (containing B-NADP, glucose-6-phosphate, glucose-6-phosphate dehydrogenase, and MgCl2), and HLM were preincubated in 13 x 100 mm glass tubes at 37 C for 10 min. (3 tubes per test compound--triplicate). Test compound (5 µM final) was added to each tube to initiate reaction and was mixed by gentle vortexing, followed by incubation at 37 °C. At t=0, 2 h, a 250-µL sample was removed from each incubation tube to separate 12 x 75 mm glass tubes containing 1 mL ice-cold acetonitrile with 0.05 µM reserpine. […] Supernatant was transferred to new 12 x 75 mm glass tubes and evaporated by Speed-Vac centrifugal vacuum evaporator. Samples were reconstituted in 200 µL 0.1 % formic acid/acetonitrile (90/10) and vortexed vigorously to dissolve. The samples were then transferred to separate polypropylene microcentrifuge tubes and centrifuged at 14000 x g for 10 min. (Fisher Micro 14, S/N M0017580). For each replicate (#1-3) at each timepoint (0 and 2 h), an aliquot sample of each test compound was combined into a single HPLC vial insert (6 total samples) for LC-MS analysis, which is described below.
# [2] = target: unphosphorylated VEGF-R2Δ50 (Homo sapiens, UniProt P35968, DEL940-989/E990V); assay: biochemical; conditions: for Ki: FLVK ** (Ki), Table 1; for inhibition at 0.05 µM: read-out: FLVK ** (% inhibition); for inhibition at 1 µM: read-out: FLVK ** (% inhibition, cell marked *)
# [3] = IP, 25 mg/kg, vehicle PEG400:H2O pH 2.3 30:70
# [4] = PO, 50 mg/kg, vehicle PEG400:H2O pH 2.3 30:70
# [5] = PO, 25 mg/kg, vehicle PEG400:H2O pH 2.3 30:70
# [6] = + albumin, read-out: HUVEC + albumin IC50
# human FGF-R1, sequence (P11362 456-766 L457V/C488A/C584S): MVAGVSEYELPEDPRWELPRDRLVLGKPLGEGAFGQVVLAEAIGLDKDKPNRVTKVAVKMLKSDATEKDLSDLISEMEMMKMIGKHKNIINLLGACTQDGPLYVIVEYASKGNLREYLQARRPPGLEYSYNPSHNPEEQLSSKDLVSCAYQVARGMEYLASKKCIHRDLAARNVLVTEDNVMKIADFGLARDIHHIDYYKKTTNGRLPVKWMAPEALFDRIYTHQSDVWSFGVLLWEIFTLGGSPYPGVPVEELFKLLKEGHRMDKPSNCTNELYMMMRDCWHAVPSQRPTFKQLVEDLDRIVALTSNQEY
# unphosphorylated VEGF-R2Δ50, sequence (P35968 with tags, fused parts or gaps DEL940-989/E990V limits assumed): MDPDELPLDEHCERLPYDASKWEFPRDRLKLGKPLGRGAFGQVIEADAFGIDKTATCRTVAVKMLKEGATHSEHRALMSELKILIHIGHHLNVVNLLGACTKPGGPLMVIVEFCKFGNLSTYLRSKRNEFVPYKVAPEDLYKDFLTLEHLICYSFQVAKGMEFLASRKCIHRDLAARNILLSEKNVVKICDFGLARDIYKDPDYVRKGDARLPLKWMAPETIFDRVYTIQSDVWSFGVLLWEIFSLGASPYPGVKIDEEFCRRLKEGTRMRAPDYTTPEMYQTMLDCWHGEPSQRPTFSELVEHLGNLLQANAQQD
# LCK tyrosine kinase, sequence (P06239 223-509 P223M/C224D): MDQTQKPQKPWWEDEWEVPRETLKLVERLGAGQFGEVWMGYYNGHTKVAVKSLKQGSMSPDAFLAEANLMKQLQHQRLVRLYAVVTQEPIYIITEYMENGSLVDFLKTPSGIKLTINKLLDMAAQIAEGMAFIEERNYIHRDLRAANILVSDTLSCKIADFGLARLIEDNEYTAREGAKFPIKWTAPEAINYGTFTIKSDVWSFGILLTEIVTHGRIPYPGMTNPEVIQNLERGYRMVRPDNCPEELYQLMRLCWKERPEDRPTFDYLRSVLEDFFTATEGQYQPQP
SMILES,"AUC (in vivo; po, 25 mg/kg) [ng·h/mL]",T1/2 [5] [h],inhibition at 1 µM (LCK tyrosine kinase) [%],"IC50 [1, 6] [nM]",inhibition at 1 µM (human FGF-R1) [%],other results
Cn1nc(C(C)(C)C)cc1C(=O)Nc1cccc(C(=O)c2ccc3c(/C=C/c4ccccn4)n[nH]c3c2)c1 [41 (n)],–,–,–,–,–,"AUC (in vivo; ip, 25 mg/kg): 9410 ng·h/mL; AUC (in vivo; po, 50 mg/kg): 9070 ng·h/mL; T1/2 [3]: 3.2 h; T1/2 [4]: 1.9 h"
C=CCn1nc(C)cc1C(=O)Nc1cccc(C(=O)c2ccc3c(/C=C/c4ccccn4)n[nH]c3c2)c1 [41 (t)],> 22500,4.0,–,–,–,–
"CCn1nc(C)cc1C(=O)Nc1cccc(Oc2ccc3c(/C=C/c4c[nH]c(C)n4)n[nH]c3c2)c1 [Reference Example 32(c), 6-[3-((1-Ethyl-3-methyl-1H-pyrazol-5-yl)carboxamido)phenoxy]-3-E-[2-(2-methylimidazol-4-yl)ethenyl]-1H-indazole]",388,2.4,52,> 30,96,–
Cc1cc(C(=O)Nc2cccc(C(=O)c3ccc4c(/C=C/c5ccccn5)n[nH]c4c3)c2)n(C(C)C)n1 [41 (x)],24200,4.2,–,–,–,–
Cc1cc(C(=O)Nc2cc(C(=O)c3ccc4c(/C=C/c5ccccn5)n[nH]c4c3)ccc2C)n(C)n1 [41 (hh)],5600,–,–,–,–,"half-life (in vivo; po, 25 mg/kg): 7.9 h"
O=C(NNc1ccccn1)c1ccccc1Sc1ccc2c(/C=C/c3ccccn3)n[nH]c2c1 [35 (n)],4820,1.4,–,–,–,–
"Cc1cc(C(=O)Nc2cccc(C(=O)c3ccc4c(/C=C/c5ccccn5)n[nH]c4c3)c2)nn1C [Reference Example 41(i), 6-[3-((1,5-dimethyl-1H-pyrazol-3-yl)carboxamido)benzoyl]-3-E-[2-(pyridin-2-yl)ethenyl]-1H-indazole]",–,–,–,–,–,"Lck-P* (% inhibition) (LCK tyrosine kinase): 16%; Lck-P* (% inhibition) (LCK tyrosine kinase; listed as 41(I)): 63%* and 38%*; remaining at 2 h, 5 µM (in vitro): 48%; IC50 ([1]; read-out: HUVEC IC50): 0.25 nM; Ki [2]: 0.24 nM and 0.04 nM; inhibition at 0.05 µM [2]: 98%; FGF-P* (% inhibition) (human FGF-R1): 41%; FGF-P* (% inhibition) (human FGF-R1; listed as 41(I)): 66% and 76%"
"O=C(NOCC1CC1)c1ccccc1Sc1ccc2c(/C=C/c3ccccn3)n[nH]c2c1 [Reference Example 35(s), 6-[2-((Cyclopropyl)methoxycarbamoyl)phenylsulfanyl]-3-E-[2-(pyridin-2-yl)ethenyl]-1H-indazole]",–,–,18,4.6,64,"remaining at 2 h, 5 µM (in vitro): 16%; inhibition at 1 µM [2]: 60%"
"O=C(Cc1ccccn1)Nc1cccc(C(=O)c2ccc3c(/C=C/c4ccccc4)n[nH]c3c2)c1 [19(g), 6-[3-(pyridin-2-ylacetamido)benzoyl]-3-E-styryl-1H-indazole]",–,–,19,1920,59,"remaining at 2 h, 5 µM (in vitro): 90%; IC50 ([1]; read-out: HUVEC IC50): 18 nM; Ki [2]: 0.86 nM"
"O=C(Nc1cccc(C(=O)c2ccc3c(/C=C/c4ccccc4)n[nH]c3c2)c1)c1ccncc1 [19(j), 6-[3-(pyridin-4-ylcarboxamido)benzoyl]-3-E-styryl-1H-indazole]",–,–,23,50,44,"AUC (in vivo; ip, 25 mg/kg): 23200 ng·h/mL; AUC (in vivo; po, 50 mg/kg): 5890 ng·h/mL; T1/2 (IP, 25 mg/kg, vehicle PEG400:H2O pH 2.3 60:40): 1.6 h; T1/2 (PO, 50 mg/kg, vehicle PEG400:H2O pH 2.3 60:40): 1.2 h; remaining at 2 h, 5 µM (in vitro): 66%; IC50 ([1]; read-out: HUVEC IC50): 2.2 nM"
"CCCONC(=O)c1ccccc1Sc1ccc2c(/C=C/c3ccccn3)n[nH]c2c1 [Reference Example 35(t), 6-[2-(n-Propoxycarbamoyl)phenylsulfanyl]-3-E-[2-(pyridin-2-yl)ethenyl]-1H-indazole]",–,–,12,4,63,"% remain (HLM, 2 h) (in vitro): 7%; inhibition at 1 µM [2]: 59%"
"CC(C)ONC(=O)c1cccc(F)c1Sc1ccc2c(/C=C/c3ccccn3)n[nH]c2c1 [Reference Example 37(c), 6-[6-fluoro-2-(isopropoxycarbamoyl)phenylsulfanyl]-3-E-[2-(pyridin-2-yl)ethenyl]-1H-indazole]",–,–,12,12,39,"% remain (HLM, 2 h) (in vitro): 21%; inhibition at 0.05 µM [2]: 83%"
CC(=O)Nc1cc(C(=O)c2ccc3c(/C=C/c4ccccn4)n[nH]c3c2)ccc1C [41 (gg)],2690,1.1,–,–,–,–
"O=C(Nc1ccccc1)c1ccccc1Sc1ccc2c(/C=C/c3ccccn3)n[nH]c2c1 [Reference Example 33(c), 6-[2-(phenylcarbamoyl)phenylsulfanyl]-3-E-[2-(pyrldin-2-yl)ethenyl]-1H-indazole]",–,–,26,6.6,76,"AUC (in vivo; ip, 25 mg/kg): 697 ng·h/mL; AUC (in vivo; po, 50 mg/kg): 183 ng·h/mL; Cmin (7 hr conc.) [3]: 7 ng/mL; T1/2 [3]: 1.2 h; Cmin (7 hr conc.) [4]: 5 ng/mL; T1/2 [4]: 3.0 h; % remain (HLM, 2 h) (in vitro): 16%"
"Cc1cc(C(=O)Nc2cc(C(=O)c3ccc4c(/C=C/c5ccccn5)n[nH]c4c3)ccc2C)n(C(C)C)n1 [Reference Example 41(kk), 6-[3-((1-Isopropyl-3-methyl-1H-pyrazol-5-yl)carboxamido)-4-methylbenzoyl]-3-E-[2-(pyridin-2-yl)ethenyl]-1H-indazole]",–,–,26,16,97,"% remain (HLM, 2 h) (in vitro): 63%; inhibition at 0.05 µM [2]: 100%"
COc1cc(C(=O)Nc2cccc(C(=O)c3ccc4c(/C=C/c5ccccn5)n[nH]c4c3)c2)cc(Cl)n1 [41 (u)],875,5.6,–,–,–,–
Cc1cc(C(=O)Nc2cccc(C(=O)c3ccc4c(/C=C/c5ccccn5)n[nH]c4c3)c2)cc(Cl)n1 [41 (q)],–,5.2,–,–,–,"AUC (in vivo; ip, 25 mg/kg): > 27000 ng·h/mL"
CN(O)C(=O)c1ccccc1Sc1ccc2c(/C=C/c3ccccn3)n[nH]c2c1 [35 (o)],683,1.0,–,–,–,Cmin (7 hr conc.) [5]: 3 ng/mL
"CCn1nc(C)cc1C(=O)Nc1cccc(Oc2ccc3c(/C=C/c4c[nH]cn4)n[nH]c3c2)c1 [Reference Example 32(b), 6-[3-((1-Ethyl-3-methyl-1H-pyrazol-5-yl)carboxamido)phenoxy]-3-E-[2-(1H-imidazol-4-yl)ethenyl]-1H-indazole]",490,2.1,70,21,95,–
"O=C(c1cccc(NC(=O)c2ccc(Cl)s2)c1)c1ccc2c(/C=C/c3ccccn3)n[nH]c2c1 [Reference Example 41(o), 6-[3-((5-chlorothien-2-yl)carboxamido)benzoyl]-3-E-[2-(pyridin-2-yl)ethenyl]-1H-indazole]",–,–,77,10,74,"AUC (in vivo; ip, 25 mg/kg): > 33800 ng·h/mL; % remain (HLM, 2 h) (in vitro): 94%"
"COc1cccc(C(=O)Nc2cccc(C(=O)c3ccc4c(/C=C/c5ccccn5)n[nH]c4c3)c2)c1 [Reference Example 41(bb), 6-[3-(3-methoxybenzamido)benzoyl]-3-E-[2-(pyridin-2-yl)ethenyl]-1H-indazole]",–,–,76,1 to 3,88,"% remain (HLM, 2 h) (in vitro): 110%; inhibition at 0.05 µM [2]: 99%"
"Cn1cccc1C(=O)NNC(=O)c1ccccc1Sc1ccc2c(/C=C/c3ccccn3)n[nH]c2c1 [Reference Example 35(e), 6-[2-((1-methylpyrrol-2-ylhydrazido)carbonyl)phenylsulfanyl]-3-E-[2-(pyridin-2-yl)ethenyl)-1H-indazole]",–,–,56,4.8,69,"% remain (HLM, 2 h) (in vitro): 34%; inhibition at 0.05 µM [2]: 99%"
Cc1cc(C(=O)Nc2cc(C(=O)c3ccc4c(/C=C/c5ccccn5)n[nH]c4c3)c(C)cc2C)n(C)n1 [41 (mm)],2260,–,–,–,–,"half-life (in vivo; po, 25 mg/kg): 2.5 h"
COc1cccc(C(=O)Nc2cccc(C(=O)c3ccc4c(/C=C/c5ccccn5)n[nH]c4c3)c2)c1 [41 (bb)],–,–,–,–,–,"AUC (in vivo; po, 50 mg/kg): 2180 ng·h/mL; T1/2 [4]: 2.0 h"
